From patent US4393178A, “Fast crystallizing polyester compositions” (priority 1979, dated 1983)
Counter-ions that a name gives are not always drawn. Like-named read-outs stand apart in the source and are kept apart here.

Key:
[1] = Crystallisation peak temperature on heating (Tn), DSC; type: physicochemical; conditions: for Tn (16° C./min): 1% salt deposited from solution on PET; for Tn (16° C./min) / Tn(comp.)-Tn(PET) (16° C./min): pressed 280 °C 1 minute, heating rate 16 °C/minute; for Tn: 1% salt on PET I.V. 0.73 from solution; for nucleating activity: in words; for Tn(comp.)-Tn(PET) (16° C./min): 1% salt deposited from solution on PET chip; for Tn(composition)-Tn(polyester): PET I.V. 0.73 + 1% salt, 2-roll mill 300 °C 2 min, 10 °C/minute
Method: In one such DSC technique the crystallisation peak temperature difference, Tn(composition)--Tn(polyester) is determined by measuring the crystallisation peak temperatures on heating for the composition in comparison with the polyester of the composition not containing the ionisable salt. The detailed procedure is as follows. Compositions were prepared from the polyester and the additive by mixing on a 2-roll mill at 300° C. for 2 minutes. The sample was taken from the mill and pressed into a film in a compression moulding machine. 10 mg samples of the composition were placed in a capsule, rapidly heated to 290° C. and maintained at that temperature for 1 minute. The capsule was then dropped into water to quench the polymer and prevent crystallisation. The sample was then placed in a Perkin Elmer DSC 2 machine and heated at a rate of 10° C./minute until reaching a temperature of 290° C. The crystallisation peak temperature observed on this heating cycle is recorded and compared with the value for the polyester not containing the additive.
Samples of polyethylene terephthalate (I.V. =0.73) containing 1% of the salts listed in Table 2 were prepared by compounding at 300° C. on a 2-roll mill for 2 minutes. The samples were evaluated to determine Tn(composition-Tn(polyester), the total number of end groups, the number of carboxylate groups and the number of hydroxyl and carboxyl groups.
The salts listed in Table 3 were deposited from solution on the surface of polyethylene terephthalate chip to give a concentration of 1% by weight of salt. The product was dried under vcuum at 96° C. for 3 hours. The compositions were pressed into film using a temperature of 280° C. for 1 minute. The DSC measurements were made after quenching from the melt to prevent crystallisation and using a heating rate of 16° C./minute.
1% by weight of the sodium salt of saccharin was deposited on the surface of granules of a polyethylene terephthalate homopolymer of I.V. =0.73 by evaporating an aqueous solution of the salt from the granules by drying at 96° C. under vacuum for 3 hours. The granules obtained were compression moulded into film by pressing at 280° C. for 60 second. The film was used for measurements of Tn at a heating rate of 16° C./minute.
The effect of the salts listed in Table 4 was determined by taking granules of a polymer of poly(ethylene terephthalate) homopolymer having an intrinsic viscosity of 0.73 and evaporating a solution of the salt in methanol or water from the surface of the granules by drying at 96° C. under vacuum for 3 hours. The proportions of polymer and solution used were such as to give a concentration of 1% of salt by weight of the final dry composition. The granules obtained were compression-moulded into film at 280° C. for various periods of time. The film was used for measurement of Tn as hereinbefore described.
Two samples of polyethylene terephthalate chip (I.V. =0.73) were coated from solution with 1% of the sodium salt of o-hydroxybenzoic acid and the disodium salt of the same acid respectively. After drying for 3 hours in a vacuum oven at 95° C. films were prepared by pressing the products for 1 minute at 280° C.

End group determination = type: physicochemical
Method: The numbers of hydroxyl and carboxyl groups were also determined according to the procedure given in this paper.
[…] The samples were evaluated to determine Tn(composition-Tn(polyester), the total number of end groups, the number of carboxylate groups and the number of hydroxyl and carboxyl groups.

[2] = Half-crystallisation time (t1/2), isothermal DSC; type: physicochemical
Method: A DSC 2 Perkin Elmer scanning calorimeter was used.
10 mg of the sample of polymer material are placed in a capsule and introduced into the apparatus, wherein the sample is quickly heated to a temperature of 290° C. at which it is maintained during 1 minute.
The molten polymer material is then very quickly cooled by means of liquid air (at a rate of 320° C. per minute) until the crystallisation temperature is reached.
The crystallisation isotherm is registered on a temperature-time graph and the peak appearing on the registered isotherm is taken as the half-crystallisation time (t1/2).

[3] = Degradation constant K (melt degradation performance); type: physicochemical; design: unit not given here; conditions: 1% salt in PET, 2-roll mill 270 °C 5 min; molten state 290 °C
Method: The melt degradation performance is a measure of the extent of degradation under molten conditions. A convenient method of quantifying the performance is by measuring the "K value". A method for determining this value in the molten state using an Instron Capillary rheometer is given in a paper by J. Devaux et al in Makromol.
This method is carried out on samples prepared by reacting the salt with the polyester on a 2 roll-mill at a temperature above the melting point of the polyester for 5 minutes and then pressing the product obtained into a 2 mm thick sheet using the same temperature for 3 minutes before cooling to room temperature. The method is described for polyethylene terephthalate but can be readily adapted for other polyesters.
For polyethylene terephthalate the K value in the presence of salt should be less than 60.

[4] = ΔT = Tc(cooling) - Tn(heating), DSC; type: physicochemical; conditions: 1% salt in PET, 2-roll mill 270 °C 5 min; 10 °C/minute
Method: An alternative method for assessing the effectiveness of nucleation of an additive is to compare the difference between the value of the crystallisation peak on cooling (Tc) with that on heating (Tn) for a composition containing an ionisable salt. The value obtained from this comparison, Tc(cooling) -Tn(heating) is termed ΔT. […] Samples of polyester together with 1% of the salt under test were mixed in a 2-roll mill at 270° C. for 5 minutes. The sample produced was pressed into 2 mm thick sheets at 270° C. for 3 minutes and then cooled to room temperature. 10 mg of the sample was placed in a capsule and rapidly heated to 290° C. After maintaining this temperature for 1 minute the capsule was quenched in water. The crystallisation peak temperatures on heating (Tn) and cooling (Tc) were determined using heating and cooling rates of 10° C./minute on a Perkin Elmer DSC 2 machine.

[5] = Solubility parameter δ of the acid; conditions: product for the acid
[6] = 1% salt deposited from solution on PET chip, pressed 280 °C 1 minute
[7] = PET I.V. 0.73 + 1% salt, 2-roll mill 300 °C 2 min

O=C([O-])c1cccc2ccccc12.[Na+]
Tn (16° C./min) [1]: 111 °C

O=[PH](O)C1CCCCC1 [Calcium cyclohexyl phosphinate]
Tn (16° C./min) [1]: 129 °C

O=C([O-])c1ccc(C(=O)[O-])cc1.[Na+].[Na+] [Disodium terephthalate, reference compound]
Tn ([1]; time in press 30 sec at 280 °C): 141 °C | Tn ([1]; time in press 60 sec at 280 °C): 140 °C | nucleating activity [1]: only slight nucleating activity

O=C(O)c1ccccc1C(=O)O [Potassium hydrogen orthophthalate, reference compound]
Tn ([1]; time in press 30 sec at 280 °C): 142.5 °C | Tn ([1]; time in press 60 sec at 280 °C): 144.5 °C

COC(=O)c1ccc(C(=O)[O-])cc1.[K+] [Potassium monomethyl terephthalate, reference compound]
Tn ([1]; time in press 30 sec at 280 °C): 138.5 °C | Tn ([1]; time in press 60 sec at 280 °C): 137.5 °C | nucleating activity [1]: only slight nucleating activity

O=C([O-])c1cccc2c(O)cccc12.[Na+] [Sodium 5-hydroxy-1-naphthoate]
Tn (16° C./min) [1]: 132 °C

O=C([O-])c1ccc2cc(O)ccc2c1.[Na+] [Sodium 6-hydroxy-2-naphthoate]
Tn (16° C./min) [1]: 116 °C

COc1ccc2cc(C(=O)[O-])ccc2c1.[Na+] [Sodium 6-methoxy-2-naphthoate]
Tn (16° C./min) [1]: 119 °C

O=C([O-])c1cccc2cccc(Br)c12.[Na+] [Sodium 8-bromo-1-naphthoate]
Tn (16° C./min) [1]: 124 °C

COC(=O)c1ccc(C(=O)[O-])cc1.[Na+] [Sodium monomethyl terephthalate, reference compound]
Tn ([1]; time in press 60 sec at 280 °C): 132 °C | nucleating activity [1]: only slight nucleating activity

O=[PH](O)c1ccccc1 [Sodium phenyl phosphinate]
Tn (16° C./min) [1]: 117 °C | End Groups --COOH (End group determination; [6]): 25 moles × 10^-6 g^-1 | End Groups --OH (End group determination; [6]): 66 moles × 10^-6 g^-1

O=C(O)c1ccccc1-c1ccccc1 [Sodium salt of 2-biphenylcarboxylic acid]
Tn(comp.)-Tn(PET) (16° C./min) [1]: 22 °C | Tn (16° C./min) [1]: 121 °C | End Groups --COOH (End group determination; [6]): 26 moles × 10^-6 g^-1 | End Groups --OH (End group determination; [6]): 60 moles × 10^-6 g^-1 | End Groups Total from solution I.V. (End group determination; [6]): 133 moles × 10^-6 g^-1

O=C(O)c1ccc2ccccc2c1 [Sodium salt of 2-naphthoic acid]
Tn(comp.)-Tn(PET) (16° C./min) [1]: 25 °C | Tn (16° C./min) [1]: 120 °C | End Groups --COOH (End group determination; [6]): 31 moles × 10^-6 g^-1 | End Groups --OH (End group determination; [6]): 60 moles × 10^-6 g^-1 | End Groups Total from solution I.V. (End group determination; [6]): 121 moles × 10^-6 g^-1

O=C(O)c1ccc(-c2ccccc2)cc1 [Sodium salt of 4-biphenylcarboxylic acid]
Tn(comp.)-Tn(PET) (16° C./min) [1]: 16 °C | Tn (16° C./min) [1]: 131 °C | End Groups --COOH (End group determination; [6]): 31 moles × 10^-6 g^-1 | End Groups --OH (End group determination; [6]): 61 moles × 10^-6 g^-1 | End Groups Total from solution I.V. (End group determination; [6]): 107 moles × 10^-6 g^-1

O=C(O)c1ccccc1[N+](=O)[O-] [ortho-nitrobenzoic acid]
t1/2 (sec) 110° C. ([2]; 110 °C, 1% salt in PET, 2-roll mill 270 °C 5 min, after melting 1 minute at 290 °C): 65 s | t1/2 (sec) 120° C. ([2]; 120 °C, 1% salt in PET, 2-roll mill 270 °C 5 min, after melting 1 minute at 290 °C): 45 s | K [3]: 20 | ΔT [4]: 106 °C | δ × pKH.sbsb.2O [5]: 30

O=C([O-])Cc1cccc2ccccc12.[Na+] [sodium 1-naphthylacetate]
t1/2 (sec) 110° C. [2]: 55 s | t1/2 (sec) 120° C. [2]: 30 s | K [3]: 30

O=C([O-])c1c(Cl)cccc1Cl.[Na+] [sodium 2,6-dichlorobenzoate]
Tn(composition)-Tn(polyester) [1]: 25 °C | % of carboxylate end group (End group determination; [7]): 9.8% | End Groups --COOH (End group determination; [7]): 51 moles × 10^-6 g^-1 | End Groups --OH (End group determination; [7]): 56 moles × 10^-6 g^-1 | End Groups Carboxylate (End group determination; [7]): 15 moles × 10^-6 g^-1 | End Groups Total from solution I.V. (End group determination; [7]): 153 moles × 10^-6 g^-1

O=C([O-])c1c(O)cccc1O.[Na+] [sodium 2,6-dihydroxybenzoate]
Tn(composition)-Tn(polyester) [1]: 24 °C | % of carboxylate end group (End group determination; [7]): 3.9% | End Groups --COOH (End group determination; [7]): 55 moles × 10^-6 g^-1 | End Groups --OH (End group determination; [7]): 69 moles × 10^-6 g^-1 | End Groups Carboxylate (End group determination; [7]): 5 moles × 10^-6 g^-1 | End Groups Total from solution I.V. (End group determination; [7]): 127 moles × 10^-6 g^-1

O=C([O-])c1cc(O)cc(O)c1.[Na+] [sodium 3,5-dihydroxybenzoate]
Tn(composition)-Tn(polyester) [1]: 7 °C | % of carboxylate end group (End group determination; [7]): 0% | End Groups Carboxylate (End group determination; [7]): 0 moles × 10^-6 g^-1 | End Groups Total from solution I.V. (End group determination; [7]): 138 moles × 10^-6 g^-1

O=C([O-])c1ccc(O)cc1.[Na+] [sodium p-hydroxybenzoate]
Tn(composition)-Tn(polyester) [1]: 20 °C | % of carboxylate end group (End group determination; [7]): 2.7% | End Groups --COOH (End group determination; [7]): 102 moles × 10^-6 g^-1 | End Groups --OH (End group determination; [7]): 64 moles × 10^-6 g^-1 | End Groups Carboxylate (End group determination; [7]): 4 moles × 10^-6 g^-1 | End Groups Total from solution I.V. (End group determination; [7]): 148 moles × 10^-6 g^-1

O=C([O-])Cc1ccccc1.[Na+] [sodium phenylacetate]
t1/2 (sec) 110° C. [2]: 55 s | t1/2 (sec) 120° C. [2]: 30 s | K [3]: less than 15
